Data reported in patent US6750245B2, “C7 carbamate substituted taxanes” (FSU Research Foundation, Inc., priority 2000, dated 2004).

The compounds below were run on HCT116 (assay: In vitro cytotoxicity measured by the cell colony formation assay). Conditions: HCT116 cells; drug concentration producing 50% inhibition of colony formation; incubated with drugs 72 h at 37° C.; colonies counted after 7 days; read-out: IN VITRO ID 50 (nm) HCT116.
Format: cell-based
Experimental: In Vitro Cytotoxicity Measured by the Cell Colony Formation Assay
Four hundred cells (HCT116) were plated in 60 mm Petri dishes containing 2.7 mL of medium (modified McCoy's 5a medium containing 10% fetal bovine serum and 100 units/mL penicillin and 100 µg/mL streptomycin). The cells were incubated in a CO2 incubator at 37° C. for 5 h for attachment to the bottom of Petri dishes. The compounds identified in Example 2 were made up fresh in medium at ten times the final concentration, and then 0.3 mL of this stock solution was added to the 2.7 mL of medium in the dish. The cells were then incubated with drugs for 72 h at 37° C. At the end of incubation the drug-containing media were decanted, the dishes were rinsed with 4 mL of Hank's Balance Salt Solution (HBSS), 5 mL of fresh medium was added, and the dishes were returned to the incubator for colony formation. The cell colonies were counted using a colony counter after incubation for 7 days.

`CC(=O)O[C@@]12CO[C@@H]1C[C@H](OC(=O)Nc1ccc(F)c(F)c1)[C@@]1(C)C(=O)[C@H](O)C3=C(C)[C@@H](OC(=O)[C@H](O)[C@@H](NC(=O)C=C(C)C)c4ccco4)C[C@@](O)([C@@H](OC(=O)c4ccccc4)C12)C3(C)C` (some centres unmarked) [Compound 5522] and `CC=CC(=O)NC(c1ccco1)C(O)C(=O)OC1CC2(O)C(OC(=O)c3ccccc3)C3C4(OC(C)=O)COC4CC(OC(=O)Nc4ccc(F)c(F)c4)C3(C)C(=O)C(O)C(=C1C)C2(C)C` (centres unmarked) [Compound 5800] cannot be ordered by IC50: < 1 nM for the first, < 10 nM for the second.

`C/C=C/C(=O)N[C@@H](c1ccco1)[C@@H](O)C(=O)O[C@H]1C[C@@]2(O)[C@@H](OC(=O)c3ccccc3)C3[C@](C)(C(=O)[C@H](O)C(=C1C)C2(C)C)[C@@H](OC(=O)Nc1ccccc1)C[C@H]1OC[C@@]31OC(C)=O` (some centres unmarked) [Compound 5757] and `CC(=O)O[C@@]12CO[C@@H]1C[C@H](OC(=O)Nc1ccccc1)[C@@]1(C)C(=O)[C@H](O)C3=C(C)[C@@H](OC(=O)[C@H](O)[C@@H](NC(=O)C=C(C)C)c4ccco4)C[C@@](O)([C@@H](OC(=O)c4ccccc4)C12)C3(C)C` (some centres unmarked) [Compound 5535, N-Debenzoyl-N-isobutenyl-3′-desphenyl-3′-(2-furyl)-7-phenylcarbamoyl taxol] cannot be ordered by IC50: < 10 nM for the first, < 1 nM for the second.

`C/C=C/C(=O)N[C@@H](c1ccco1)[C@@H](O)C(=O)O[C@H]1C[C@@]2(O)[C@@H](OC(=O)c3ccccc3)C3[C@](C)(C(=O)[C@H](O)C(=C1C)C2(C)C)[C@@H](OC(=O)NC1CCCCC1)C[C@H]1OC[C@@]31OC(C)=O` (some centres unmarked) [Compound 5895] and `CC(=O)O[C@@]12CO[C@@H]1C[C@H](OC(=O)NC1CCCCC1)[C@@]1(C)C(=O)[C@H](O)C3=C(C)[C@@H](OC(=O)[C@H](O)[C@@H](NC(=O)OC(C)(C)C)c4ccco4)C[C@@](O)([C@@H](OC(=O)c4ccccc4)C12)C3(C)C` (some centres unmarked) [Compound 5373] cannot be ordered by IC50: < 1 nM for the first, < 10 nM for the second.

`CC(=O)O[C@@]12CO[C@@H]1C[C@H](OC(=O)Nc1ccc(F)c(F)c1)[C@@]1(C)C(=O)[C@H](O)C3=C(C)[C@@H](OC(=O)[C@H](O)[C@@H](NC(=O)OC(C)(C)C)c4ccco4)C[C@@](O)([C@@H](OC(=O)c4ccccc4)C12)C3(C)C` (some centres unmarked) [Compound 5415] and `CCC(C)(C)OC(=O)N[C@@H](c1ccco1)[C@@H](O)C(=O)O[C@H]1C[C@@]2(O)[C@@H](OC(=O)c3ccccc3)C3[C@](C)(C(=O)[C@H](O)C(=C1C)C2(C)C)[C@@H](OC(=O)Nc1ccc(F)c(F)c1)C[C@H]1OC[C@@]31OC(C)=O` (some centres unmarked) [Compound 6404] cannot be ordered by IC50: < 1 nM for the first, < 10 nM for the second.

`C/C=C/C(=O)N[C@@H](c1ccco1)[C@@H](O)C(=O)O[C@H]1C[C@@]2(O)[C@@H](OC(=O)c3ccccc3)C3[C@](C)(C(=O)[C@H](O)C(=C1C)C2(C)C)[C@@H](OC(=O)NCC)C[C@H]1OC[C@@]31OC(C)=O` (some centres unmarked) [Compound 5822] and `CCNC(=O)O[C@H]1C[C@H]2OC[C@@]2(OC(C)=O)C2[C@H](OC(=O)c3ccccc3)[C@]3(O)C[C@H](OC(=O)[C@H](O)[C@@H](NC(=O)C=C(C)C)c4ccco4)C(C)=C([C@@H](O)C(=O)[C@@]21C)C3(C)C` (some centres unmarked) [Compound 5588] cannot be ordered by IC50: < 10 nM for the first, < 1 nM for the second.

Compared with `CCNC(=O)O[C@H]1C[C@H]2OC[C@@]2(OC(C)=O)C2[C@H](OC(=O)c3ccccc3)[C@]3(O)C[C@H](OC(=O)[C@H](O)[C@@H](NC(=O)OC(C)(C)C)c4ccco4)C(C)=C([C@@H](O)C(=O)[C@@]21C)C3(C)C` (some centres unmarked) [Compound 5393], `CCCNC(=O)O[C@H]1C[C@H]2OC[C@@]2(OC(C)=O)C2[C@H](OC(=O)c3ccccc3)[C@]3(O)C[C@H](OC(=O)[C@H](O)[C@@H](NC(=O)OC(C)(C)C)c4ccco4)C(C)=C([C@@H](O)C(=O)[C@@]21C)C3(C)C` (some centres unmarked) [Compound 5665] is higher in IC50: < 1 nM for the first, > 50 nM for the second.

`CC(=O)O[C@@]12CO[C@@H]1C[C@H](OC(=O)NC(C)(C)C)[C@@]1(C)C(=O)[C@H](O)C3=C(C)[C@@H](OC(=O)[C@H](O)[C@@H](NC(=O)OC(C)(C)C)c4ccco4)C[C@@](O)([C@@H](OC(=O)c4ccccc4)C12)C3(C)C` (some centres unmarked) [Compound 5454] and `CCC(C)(C)OC(=O)N[C@@H](c1ccco1)[C@@H](O)C(=O)O[C@H]1C[C@@]2(O)[C@@H](OC(=O)c3ccccc3)C3[C@](C)(C(=O)[C@H](O)C(=C1C)C2(C)C)[C@@H](OC(=O)Nc1ccccc1)C[C@H]1OC[C@@]31OC(C)=O` (some centres unmarked) [Compound 6399] cannot be ordered by IC50: < 10 nM for the first, < 10 nM for the second.
